# Values quoted from earlier work, collected in patent publication US20080176787A1, “Parathyroid hormone analogues and methods of use” (priority 2005, published 2008).
# Like-named read-outs stand apart in the source and are kept apart here. Marks after values point to notes of the source that are not given here.
# How the values were obtained:
# monkey = conditions: cited from earlier work
# patients = conditions: cited from earlier work
# [1] = system: postmenopausal women (with prior vertebral fractures); conditions: cited from earlier work; for hypercalcemia seen at least once, % of subjects: average of 19 months (placebo 2%)
# rats = conditions: rat, in vivo; cited from earlier work
# [2] = system: OVX adult Cynomolgus monkeys; conditions: Humerus Mid-Diaphysis, F, 18 months, cited from earlier work
# [3] = system: OVX adult Cynomolgus monkeys; conditions: Femoral Neck, F, 18 months, cited from earlier work
# [4] = teriparatide 0, 0.5, 2, 10 μg/kg, 12 mth monkey
# [5] = 20 μg (6 months), inferred from graphed data
structure (smiles),measurement,setting,value
"CC[C@H](C)[C@H](NC(=O)[C@H](CCC(=O)O)NC(=O)[C@H](CO)NC(=O)[C@@H](NC(=O)[C@@H](N)CO)C(C)C)C(=O)N[C@@H](CCC(N)=O)C(=O)N[C@@H](CC(C)C)C(=O)N[C@@H](CCSC)C(=O)N[C@@H](Cc1cnc[nH]1)C(=O)N[C@@H](CC(N)=O)C(=O)N[C@@H](CC(C)C)C(=O)NCC(=O)N[C@@H](CCCCN)C(=O)N[C@@H](Cc1cnc[nH]1)C(=O)N[C@@H](CC(C)C)C(=O)N[C@@H](CC(N)=O)C(=O)N[C@@H](CO)C(=O)N[C@@H](CCSC)C(=O)N[C@@H](CCC(=O)O)C(=O)N[C@@H](CCCN=C(N)N)C(=O)N[C@H](C(=O)N[C@@H](CCC(=O)O)C(=O)N[C@@H](Cc1c[nH]c2ccccc12)C(=O)N[C@@H](CC(C)C)C(=O)N[C@@H](CCCN=C(N)N)C(=O)N[C@@H](CCCCN)C(=O)N[C@@H](CCCCN)C(=O)N[C@@H](CC(C)C)C(=O)N[C@@H](CCC(N)=O)C(=O)N[C@@H](CC(=O)O)C(=O)N[C@H](C(=O)N[C@@H](Cc1cnc[nH]1)C(=O)N[C@@H](CC(N)=O)C(=O)N[C@@H](Cc1ccccc1)C(=O)O)C(C)C)C(C)C [Forteo, hPTH-(1-34)]",nephropathy,monkey; pre-clinical toxicity,induces a mineralizing nephropathy in monkeys and possibly rats
same,Free Ca,monkey; [4],Free Ca increased
same,serum neutralising antibodies,monkey; [4],detected all doses
same,tubulo-interstitial nephritis,monkey; [4],nephritis all doses;
same,NoAEL,"monkey; teriparatide, 12 mth monkey",<0.5 µg/kg
same,CTx,patients; [5],3300^2 pM/L
same,P1NP,patients; [5],71^2 μg/L
same,TH-BMD (%),patients; [5],0.6^2%
same,FN-BMD (%),patients; 20 μg (6 months),1.02%
same,LS-BMD (%),patients; 20 μg (6 months),5.2%
same,Mean [Ca],patients; 20 μg (6 months),0.075 mmol/L
same,Pts > 2.75 mmol/L,patients; in vivo,5
same,Pts > 2.75 mmol/L (sustained),patients; in vivo,2
same,Mean % Change In Femoral Neck (BMD),[1]; 20 μg for at least 12 Months,1.54%
same,Mean % Change In Total Hip (BMD),[1]; 20 μg for at least 12 Months,1.70%
same,Mean % Change In Trochanter (BMD),[1]; 20 μg for at least 12 Months,2.68%
same,"hypercalcemia seen at least once, % of subjects",[1]; 20 μg/day,11%
same,"hypercalcemia seen at least once, % of subjects",[1]; 40 μg/day,28%
same,BMD in distal and mid-shaft radius compared to placebo,[1]; Neer et al.,decrease in BMD
same,osteosarcoma in rats (warning label),rats,increase in incidence of osteosarcoma in rats
same,% Cortical Porosity,[2]; 1 μg/kg/day,~15.0* %
same,% Cortical Porosity,[2]; 5 μg/kg/day,~25* %
same,% Cortical Porosity,[3]; 1 μg/kg/day,8.5 ± 0.8 %
same,% Cortical Porosity,[3]; 5 μg/kg/day,8.9 ± 0.6 %
